The results in this text go back to PubChem BioAssay (NCI).

Structures are written as SMILES.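 1) Cells in 96-well plates. 2) Compound, 48 h, 5 concentrations. 3) Linear interpolation between surrounding doses. 4) Unreached endpoint = highest concentration. Abbreviation: GI50, concentration required for 50% inhibition of growth. The concentration for full growth arrest is given as TGI.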

What all share (assay): DTP human tumour cell line panel, 48 h
In test [1] the test system is UO-31 renal.
Test [2] concerns UACC-257 melanoma.
Test [3] has as its system NCI-H460 lung.
Test [4] relates to MOLT-4 leukemia.
The subject of test [5] is HCC-2998 colon.
In test [6] the test system is OVCAR-8 ovarian.
The test system of test [7] is SK-MEL-5 melanoma.
Test [8] relates to COLO 205 colon.
The test system of test [9] is NCI-H522 lung.
Test [10] has as its system SF-295 CNS.

With `COc1ccc2c(c1)nc(N)c1c3cccnc3cn21`, the GI50 (as a rule, the concentration at which growth is held to half of that of the control) is 0.0776 µM in [1]; 0.064 µM in test [2]; 0.0923 µM in test [3]; 0.0861 µM in test [4]; 0.103 µM in test [5]; 0.0898 µM in test [6]. For the same compound, the GI50 in [7] is 0.0322 µM; in [8] it was 0.0452 µM; in test [9] it was 0.0411 µM; in test [10], 0.0365 µM. Also, the TGI (usually the concentration giving total growth inhibition) in [1] was 17.9 µM; in test [2], 26.7 µM; in [3], 1.77 µM; in [4], above 100 µM; in test [5], 17.5 µM; in test [6], above 54.5 µM. The TGI came out at 0.836 µM in test [7], 0.668 µM in test [8], 3.45 µM in [9] and 1.13 µM in test [10].

Turning to `Fc1ccc(Nc2nc(NCCNc3ccnc4cc(Cl)ccc34)nc(N3CCOCC3)n2)cc1`, the GI50 in [1] was 3.52 µM; in [2] it was 1.9 µM; in test [3], 3.44 µM; in test [4], 4.16 µM; in [5], 2 µM; in [6] it was 11.6 µM. Moreover, the GI50 in test [7] was 2.15 µM; in test [8], 1.71 µM; in test [9], 4.25 µM; in [10] it was 4.19 µM. The TGI in test [1] stood at 16.5 µM; in test [2], 3.65 µM; in test [3], 14 µM; in [4] it was 16.5 µM; in [5], 3.95 µM; in test [6], 40.6 µM. Also, the concentration for total growth inhibition (TGI) in test [7] stood at 4.62 µM; in test [8] it was 3.26 µM; in [9] it was 15.3 µM; in [10] it was 15.3 µM.

Regarding `CC(=O)Oc1ccccc1C(=O)C1c2cccc(O)c2C(=O)c2c(O)cccc21`, the TGI in test [1] stood at 1.68 µM; in test [2] it was 3.76 µM; in test [3] it was 2.1 µM; in test [4], 6.01 µM; in test [5] it was 6.5 µM; in test [6], 4.34 µM. The TGI in test [7] was found to be 2.4 µM; in test [8], 1.86 µM; in test [9], 3.88 µM; in test [10], 2.65 µM.

For the compound `COC(=O)C(Cc1nc2ccc(Cl)cc2[nH]c1=O)C(=O)C(=O)Nc1ccccc1[N+](=O)[O-]` (stereo not given), the TGI in [1], in test [2], in test [3], in test [4], in test [5] and in test [6] was above 100 µM throughout. The TGI in [7], in test [8], in test [9] and in test [10] was above 100 µM each time.

Take `CCOC(=O)/C(C#N)=C1\N[C@H](C(=O)OCC)CO1`: the TGI in test [1], in test [2], in [3], in [4], in test [5] and in test [6] was above 100 µM each time. Further, the TGI in [7], in [8], in test [9] and in test [10] was above 100 µM throughout.

As to `CCOC(=O)c1c(C)n(Cc2ccc(Cl)cc2Cl)c2c1cc1oc(=O)c(=O)n3c(Cc4ccccc4)nc2c13`, the GI50 was 3.77 µM in test [1]; 17.3 µM in test [2]; 2.68 µM in test [3]; 2.12 µM in test [4]; 2.25 µM in test [5]; 5.22 µM in [6]. Moreover, the GI50 in [7] was 1.97 µM; in [8], 4.65 µM; in test [9] it was 6.1 µM; in test [10], 2.32 µM. Moreover, the TGI in test [1] is 15 µM; in test [2] it was 36.3 µM; in test [3] it was 7.06 µM; in test [4], 4.55 µM; in [5] it was 5.04 µM; in test [6], 25.8 µM. Besides, the TGI in test [7] came to 3.54 µM; in [8] it was 25.3 µM; in [9], 25.5 µM; in [10] it was 10.9 µM.

Consider `CC(=O)NC(CCCN(Cc1ccccc1)C(=O)N(CCCl)N=O)C(=O)NCc1ccccc1` (stereo not given), for which the TGI in test [1] is above 100 µM; in test [2], above 100 µM; in test [3], above 79.6 µM; in [4], 97.5 µM; in test [5], above 100 µM; in test [6], above 100 µM. In addition, the total growth inhibition concentration (TGI) in [7] was above 76.7 µM; in [8], above 100 µM; in test [9], above 80.6 µM; in test [10], above 100 µM.

For `O=c1oc2ccc(Cl)cc2c(=O)n1-c1ccc(I)cc1F`, the GI50 in test [1] is 0.126 µM; in test [2], 0.137 µM; in test [3], 0.199 µM; in [4], 0.384 µM; in [5], 2.66 µM; in test [6], 0.323 µM. Moreover, the GI50 in test [7] was 0.095 µM; in test [8], 7 µM; in test [9] it was 0.111 µM; in test [10], 1.03 µM. Besides, the TGI in [1] was 1.2 µM; in test [2], 1.61 µM; in test [3], above 23.8 µM; in test [4], 1.81 µM; in test [5], 8.51 µM; in test [6] it was 15 µM. The TGI in [7] came to 0.279 µM; in test [8], 19.7 µM; in test [9], 1.83 µM; in test [10], 2.79 µM.

As for `CN(C)c1ccc(N=Nc2c([O-])ccc3ccccc23)cc1.[C-]#[O+].[C-]#[O+].[Ir]`, the GI50 was 26.7 µM in test [1]; 5.71 µM in [2]; above 100 µM in [3]; 12.6 µM in test [4]; 38.5 µM in test [5]; 25 µM in [6]. Also, the GI50 was 24.9 µM in test [7], 16.5 µM in test [8], 7.83 µM in [9] and above 100 µM in [10]. Moreover, the TGI in [1] is above 53.2 µM; in [2], 36 µM; in test [3] it was above 100 µM; in test [4] it was 59.5 µM; in test [5], above 79.9 µM; in test [6], 65.4 µM. The TGI in [7] was above 57.7 µM; in test [8] it was 31.6 µM; in test [9] it was 23.5 µM; in test [10] it was above 100 µM.

Turning to `O=C(NN1C(=O)CSC1c1ccc(Cl)cc1)c1[nH]c2ccc(F)cc2c1-c1ccccc1` (stereo not given), the GI50 in [1] was 4.07 µM; in test [2], 10.5 µM; in test [3] it was 2.81 µM; in test [4] it was 2.4 µM; in test [5], 2.31 µM; in test [6], 4.34 µM. Further, the GI50 in [7] was 5.92 µM; in [8], 2.2 µM; in test [9], 4.34 µM; in test [10], 2.86 µM. For the same compound, the TGI worked out at 13.7 µM in test [1]; 25.6 µM in test [2]; 7.84 µM in test [3]; 8.17 µM in test [4]; 5.63 µM in test [5]; 20.6 µM in test [6]. Besides, the TGI in test [7] was determined as 16 µM; in test [8], 4.81 µM; in [9], 14.8 µM; in test [10], 11.4 µM.

As to `COc1cc(/C=C(/c2ccccc2)[N+](=O)[O-])c(OC)c2c1OCO2`, the GI50 is 1.28 µM in test [1]; 1.58 µM in [2]; 1.87 µM in test [3]; 1.86 µM in [4]; 1.97 µM in test [5]; 2.12 µM in [6]. The GI50 in test [7] was 1.75 µM; in test [8], 1.98 µM; in test [9] it was 1.59 µM; in test [10] it was 2.78 µM. Moreover, the TGI amounted to 2.54 µM in test [1]; 3.4 µM in test [2]; 3.58 µM in [3]; 6.41 µM in [4]; 3.44 µM in test [5]; 6.74 µM in [6]. Moreover, the TGI in test [7] was determined as 3.14 µM; in test [8], 4.25 µM; in test [9], 4.03 µM; in [10], 7.88 µM.

As for `Cc1cc(N2CCCC2)nc(N(CCCNc2ccnc3cc(Cl)ccc23)Cc2ccc3c(c2)OCO3)n1`, the GI50 in [1] is 0.677 µM; in test [2], 1.84 µM; in test [3], 1.29 µM; in test [4] it was 1.3 µM; in test [5] it was 1.79 µM; in [6], 1.8 µM. Moreover, the GI50 is 1.53 µM in test [7], 1.39 µM in test [8], 1.66 µM in [9] and 1.16 µM in test [10]. Further, the TGI was 3.71 µM in test [1]; 3.47 µM in test [2]; 4.34 µM in [3]; 4.64 µM in test [4]; 3.79 µM in test [5]; 5.41 µM in test [6]. The total growth inhibition concentration (TGI) in test [7] was determined as 2.9 µM; in test [8], 3 µM; in test [9], 3.95 µM; in test [10] it was 2.89 µM.

In the case of `Clc1ccc2nc(Oc3ccccc3)cnc2c1`, the GI50 in test [1], in test [2], in [3], in test [4], in test [5] and in test [6] was above 100 µM in each case. In addition, the GI50 in test [7], in [8], in test [9] and in test [10] was above 100 µM in each case. For the same compound, the TGI in [1], in test [2], in test [3], in test [4], in test [5] and in test [6] was above 100 µM in each case. The TGI in test [7], in [8], in test [9] and in test [10] was above 100 µM throughout.

Take `COc1cc2cc(Oc3ccc(NC(=O)c4ccc(Cl)c(C(F)(F)F)c4)cc3)c(C)nc2cc1OC`: the GI50 in test [1] was 9.82 µM; in test [2], 18.2 µM; in test [3] it was 11.5 µM; in [4] it was 9.7 µM; in test [5], 41.7 µM; in [6] it was 22.9 µM. The GI50 in test [7] was 10.6 µM; in test [8], 11.2 µM; in test [9], 8.78 µM; in test [10] it was 2.28 µM. Moreover, the TGI in [1] was above 100 µM; in [2], 97.5 µM; in test [3], above 100 µM; in test [4], 70.5 µM; in test [5], above 100 µM; in test [6] it was above 100 µM. In addition, the TGI in [7] is 27.1 µM; in [8], 24 µM; in test [9], 83.3 µM; in test [10] it was 25.7 µM.

With `C/C=C(/CCCCNCCCC)[Si](C)(C)C`, the TGI in [1] came to 31.4 µM; in test [2] it was 30.3 µM; in test [3] it was 31.9 µM; in [4], 31.2 µM; in test [5] it was 18.2 µM; in test [6], 31.8 µM. In addition, the TGI in test [7] amounted to 26.6 µM; in test [8], 27.9 µM; in test [9], 25.3 µM; in [10], 29.2 µM.

For the compound `CCc1c[nH]c2ncnc(N3CC[C@@](N)(CNC(=O)c4ccc(F)cc4F)C3)c12`, the GI50 is 33.7 µM in test [1]; 34.5 µM in [2]; 35 µM in test [3]; 18.7 µM in test [4]; 50.7 µM in test [5]; 48.1 µM in [6]. The GI50 was 32.8 µM in test [7], 29.8 µM in test [8], 29.6 µM in [9] and 26.2 µM in [10]. Moreover, the TGI is above 100 µM in test [1]; above 100 µM in [2]; above 100 µM in [3]; above 81.2 µM in test [4]; above 100 µM in test [5]; above 100 µM in test [6]. Also, the TGI in test [7] was above 100 µM; in test [8], above 100 µM; in [9], above 75.7 µM; in test [10], above 100 µM.
